Assay results reported in paper PMC6219668 (Oncotarget, 2018).

Test system: panel of nearly 500 cancer cell lines
Experiment: Cancer Cell Line Encyclopedia profiling, 3-day CellTiter-Glo
Format: cell-based
Conditions: Homo sapiens

CN(C)C(=O)c1cc2cnc(Nc3ccc(N4CCNCC4)cn3)nc2n1C1CCCC1 [Ribociclib, 7-cyclopentyl-2-(5-piperazin-1-yl-pyridin-2-ylamino)-7H-pyrrolo[2,3-d]pyrimidine-6-carboxylic acid dimethylamide]
IC50 (NCI-H1666): > 8 µM
EC50 (NCI-H1693): 0.351 µM
IC50 (NCI-H1693): > 8 µM
EC50 (NCI-H1694): > 8 µM
IC50 (NCI-H1694): > 8 µM
EC50 (NCI-H1703): 1.11 µM
IC50 (NCI-H1703): > 8 µM
EC50 (NCI-H1792): > 8 µM
IC50 (NCI-H1792): > 8 µM
EC50 (NCI-H1793): 0.00418 µM
IC50 (NCI-H1793): > 8 µM
EC50 (NCI-H1944): 2.5 µM
IC50 (NCI-H1944): > 8 µM
EC50 (NCI-H1975): 1.05 µM
IC50 (NCI-H1975): > 8 µM
EC50 (NCI-H2009): > 8 µM
IC50 (NCI-H2009): > 8 µM
EC50 (NCI-H2030): 1.29 µM
IC50 (NCI-H2030): > 8 µM
EC50 (NCI-H2052): 0.0207 µM
IC50 (NCI-H2052): > 8 µM
EC50 (NCI-H2087): 0.338 µM
IC50 (NCI-H2087): > 8 µM
EC50 (NCI-H2122): > 8 µM
IC50 (NCI-H2122): 3.73 µM
EC50 (NCI-H2170): > 8 µM
IC50 (NCI-H2170): > 8 µM
EC50 (NCI-H2228): > 8 µM
IC50 (NCI-H2228): > 8 µM
EC50 (NCI-H2286): 0.506 µM
IC50 (NCI-H2286): > 8 µM
EC50 (NCI-H2444): > 8 µM
IC50 (NCI-H2444): > 8 µM
EC50 (NCI-H2452): 0.3 µM
IC50 (NCI-H2452): > 8 µM
EC50 (NCI-H3255): > 8 µM
IC50 (NCI-H3255): > 8 µM
EC50 (NCI-N87): > 8 µM
IC50 (NCI-N87): > 8 µM
EC50 (NUGC-3): > 8 µM
IC50 (NUGC-3): > 8 µM
EC50 (NUGC-4): 0.212 µM
IC50 (NUGC-4): 1.07 µM
EC50 (OC-314): > 8 µM
IC50 (OC-314): > 8 µM
EC50 (OCI-AML2): 0.838 µM
IC50 (OCI-AML2): 1.16 µM
EC50 (OCI-AML-5): 0.187 µM
IC50 (OCI-AML-5): > 8 µM
EC50 (OCI-Ly10): > 8 µM
IC50 (OCI-Ly10): > 8 µM
EC50 (OE33): > 8 µM
IC50 (OE33): > 8 µM
EC50 (OV-90): 0.0694 µM
IC50 (OV-90): > 8 µM
EC50 (OVCAR-3): > 8 µM
IC50 (OVCAR-3): > 8 µM
EC50 (OVCAR-4): > 8 µM
IC50 (OVCAR-4): > 8 µM
EC50 (OVCAR-8): > 8 µM
IC50 (OVCAR-8): > 8 µM
EC50 (OVSAHO): > 8 µM
IC50 (OVSAHO): > 8 µM
EC50 (P3HR-1): > 8 µM
IC50 (P3HR-1): > 8 µM
EC50 (P12-Ichikawa): 0.797 µM
IC50 (P12-Ichikawa): 3.74 µM
EC50 (P31-FUJ): > 8 µM
IC50 (P31-FUJ): > 8 µM
EC50 (PANC-03-27): > 8 µM
IC50 (PANC-03-27): > 8 µM
EC50 (PC-14): 4.03 µM
IC50 (PC-14): > 8 µM
EC50 (PLC-PRF-5): > 8 µM
IC50 (PLC-PRF-5): > 8 µM
EC50 (PSN1): 2.03 µM
IC50 (PSN1): > 8 µM
EC50 (Panc 02.03): > 8 µM
IC50 (Panc 02.03): > 8 µM
EC50 (Panc 04.03): > 8 µM
IC50 (Panc 04.03): > 8 µM
EC50 (Panc1005): > 8 µM
IC50 (Panc1005): > 8 µM
EC50 (Pfeiffer): > 8 µM
IC50 (Pfeiffer): > 8 µM
EC50 (RL95-2): 3.35 µM
IC50 (RL95-2): > 8 µM
EC50 (RPMI 8402): 0.951 µM
IC50 (RPMI 8402): 1.54 µM
EC50 (RPMI-7951): 0.807 µM
IC50 (RPMI-7951): > 8 µM
EC50 (RT-112): 0.545 µM
IC50 (RT-112): > 8 µM
EC50 (RVH-421): > 8 µM
IC50 (RVH-421): > 8 µM
EC50 (Raji): > 8 µM
IC50 (Raji): > 8 µM
EC50 (SAOS-2): > 8 µM
IC50 (SAOS-2): > 8 µM
EC50 (SBC-5): 2.3 µM
IC50 (SBC-5): > 8 µM
EC50 (SCC-9): 0.00254 µM
IC50 (SCC-9): > 8 µM
EC50 (SCaBER): 1.95 µM
IC50 (SCaBER): > 8 µM
EC50 (SF-126): > 8 µM
IC50 (SF-126): > 8 µM
EC50 (SF-295): 0.323 µM
IC50 (SF-295): > 8 µM
EC50 (SHP77): > 8 µM
IC50 (SHP77): > 8 µM
EC50 (SIG-M5): 0.0796 µM
IC50 (SIG-M5): 0.22 µM
EC50 (SJRH30): > 8 µM
IC50 (SJRH30): > 8 µM
EC50 (SJSA-1): 1.18 µM
IC50 (SJSA-1): > 8 µM
EC50 (SK-BR-3): > 8 µM
IC50 (SK-BR-3): > 8 µM
EC50 (SK-CO-1): 2.76 µM
IC50 (SK-CO-1): > 8 µM
EC50 (SK-ES1): 0.0436 µM
IC50 (SK-ES1): > 8 µM
EC50 (SK-HEP1): 0.373 µM
IC50 (SK-HEP1): > 8 µM
EC50 (SK-LMS-1): 1.26 µM
IC50 (SK-LMS-1): > 8 µM
EC50 (SK-LU-1): 0.682 µM
IC50 (SK-LU-1): > 8 µM
EC50 (SK-MEL-2): > 8 µM
IC50 (SK-MEL-2): > 8 µM
IC50 (SK-MEL-5): > 8 µM
EC50 (SK-MEL-24): > 8 µM
IC50 (SK-MEL-24): > 8 µM
EC50 (SK-MEL-30): > 8 µM
IC50 (SK-MEL-30): > 8 µM
EC50 (SK-MES-1): 5.26 µM
IC50 (SK-MES-1): 5.27 µM
EC50 (SK-MM-2): > 8 µM
IC50 (SK-MM-2): > 8 µM
EC50 (SK-N-AS): 0.457 µM
IC50 (SK-N-AS): > 8 µM
EC50 (SK-N-DZ): 0.88 µM
IC50 (SK-N-DZ): 3.44 µM
EC50 (SK-N-SH): > 8 µM
IC50 (SK-N-SH): 7.74 µM
EC50 (SK-OV-3): > 8 µM
IC50 (SK-OV-3): > 8 µM
EC50 (SKNBE2): 0.328 µM
IC50 (SKNBE2): 1.8 µM
EC50 (SNU1): 2.4 µM
IC50 (SNU1): > 8 µM
EC50 (SNU-16): > 8 µM
IC50 (SNU-16): > 8 µM
EC50 (SNU-182): > 8 µM
IC50 (SNU-182): > 8 µM
EC50 (SNU-387): > 8 µM
IC50 (SNU-387): > 8 µM
EC50 (SNU-398): 0.569 µM
IC50 (SNU-398): > 8 µM
EC50 (SNU-423): > 8 µM
IC50 (SNU-423): > 8 µM
EC50 (SNU-449): > 8 µM
IC50 (SNU-449): > 8 µM
EC50 (SNU-475): > 8 µM
IC50 (SNU-475): > 8 µM
EC50 (SNU-C2B): > 8 µM
IC50 (SNU-C2B): > 8 µM
EC50 (SU-DHL10): 5.75 µM
IC50 (SU-DHL10): 5.75 µM
EC50 (SU-DHL-4): 0.329 µM
EC50 (SU-DHL-6): 0.742 µM
IC50 (SU-DHL-6): > 8 µM
EC50 (SU-DHL-8): 1.6 µM
IC50 (SU-DHL-8): 3.73 µM
EC50 (SU.86.86): > 8 µM
IC50 (SU.86.86): > 8 µM
EC50 (SUP-T1): > 8 µM
IC50 (SUP-T1): > 8 µM
EC50 (SW48): 0.0194 µM
IC50 (SW48): > 8 µM
EC50 (SW480): 6.21 µM
IC50 (SW480): > 8 µM
EC50 (SW780): 0.159 µM
IC50 (SW780): > 8 µM
EC50 (SW900): 0.385 µM
IC50 (SW900): > 8 µM
EC50 (SW1088): > 8 µM
IC50 (SW1088): > 8 µM
EC50 (SW1353): > 8 µM
IC50 (SW1353): > 8 µM
EC50 (SW1417): > 8 µM
IC50 (SW1417): > 8 µM
EC50 (SW1573): 0.324 µM
IC50 (SW1573): > 8 µM
EC50 (SW1990): 0.593 µM
IC50 (SW1990): > 8 µM
EC50 (SW-403): > 8 µM
IC50 (SW-403): 4.34 µM
EC50 (SW-620): 0.45 µM
IC50 (SW-620): > 8 µM
EC50 (T47D): > 8 µM
IC50 (T47D): > 8 µM
EC50 (T98G): > 8 µM
IC50 (T98G): > 8 µM
